Consider 14 compounds from patent publication US20260028354A1, “TETRAHYDRONAPHTHALENE DERIVATIVES AS ESTROGEN RECEPTOR DEGRADERS” (REGENT OF THE UNIVERSITY OF MICHIGAN, priority 2022, published 2026).

Where two headings read alike, the source gives them in different places.

The target in one assay is CRBN/DDB1 (Homo sapiens (Human), UniProt Q96SW2). Format: binding. The following applies: His tagged CRBN+DDB1, Cy5-labeled Thalidomide probe, one hour; read-out: CRBN HTRF IC50. How it is done: The binding potency was determined using HTRF assay technology (Perkin Elmer). Compounds were serially diluted in DMSO and […] volume was transferred to white 384-well plate.
(In general: Time-resolved FRET reads energy transfer from a long-lived donor to a nearby acceptor.)

Another assay concerns the target ER in MCF-7 cells (Homo sapiens (Human), UniProt P03372). The assay is described as follows: In-cell Western (ICW) ER degradation assay in MCF-7 cells. It counts as cell-based. The following applies: 16 hrs treatment; for Dmax: MCF7, MCF-7, maximal ER degradation, read-out: MCF7 Dmax; for DC50: MCF-7, ER degradation, read-out: MCF7 DC50.
Assay [1] in a line: Cell growth assay (WST-8) for "B" compounds. Format: cell-based. The settings on record: T47D, read-out: Cell growth Inhibition in T47D cell line IC50. In outline: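 Cells seeded at 1500/well overnight, then exposed to compounds for 4 days. 10% WST-8 added for 2.5 h at 37 °C and absorbance read at 450 nm. Growth given as absorbance relative to vehicle control, from three repeats.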

For a further assay, the target named is ER (Homo sapiens (Human), UniProt P03372). As to the kind of experiment: In-cell western blot analysis of ER for "B" compounds. It counts as cell-based. The following applies: 16 hours, read-out: ICW DC50. In outline:
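In-cell western: fixed cells stained with primary antibodies (2 h, RT), then anti-rabbit-680 and anti-mouse-800 secondaries (1:1000, 1 h, RT), imaged on a LI-COR plate reader. Relative ER level in treated wells expressed against untreated and DMSO-treated wells set as 100%.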

Chain of ER (P03372 whole entry): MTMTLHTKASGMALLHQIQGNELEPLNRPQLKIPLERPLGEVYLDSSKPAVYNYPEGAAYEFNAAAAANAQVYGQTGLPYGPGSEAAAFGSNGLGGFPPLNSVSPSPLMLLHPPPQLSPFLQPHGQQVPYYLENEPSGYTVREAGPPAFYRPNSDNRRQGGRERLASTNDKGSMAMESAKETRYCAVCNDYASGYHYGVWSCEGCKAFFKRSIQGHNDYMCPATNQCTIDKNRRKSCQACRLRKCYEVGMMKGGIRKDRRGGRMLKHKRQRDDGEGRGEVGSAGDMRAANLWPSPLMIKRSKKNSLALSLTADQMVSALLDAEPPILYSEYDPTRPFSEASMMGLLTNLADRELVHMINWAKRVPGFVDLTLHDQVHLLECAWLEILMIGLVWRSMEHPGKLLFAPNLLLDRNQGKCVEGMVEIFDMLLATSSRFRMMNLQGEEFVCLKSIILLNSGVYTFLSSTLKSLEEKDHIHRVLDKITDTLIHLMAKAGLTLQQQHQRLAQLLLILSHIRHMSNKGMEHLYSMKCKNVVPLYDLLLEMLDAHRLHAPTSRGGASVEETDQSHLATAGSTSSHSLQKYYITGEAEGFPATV
Chain of ER in MCF-7 cells (P03372 whole entry): as above
Chain of CRBN/DDB1 (Q96SW2 whole entry, species assumed): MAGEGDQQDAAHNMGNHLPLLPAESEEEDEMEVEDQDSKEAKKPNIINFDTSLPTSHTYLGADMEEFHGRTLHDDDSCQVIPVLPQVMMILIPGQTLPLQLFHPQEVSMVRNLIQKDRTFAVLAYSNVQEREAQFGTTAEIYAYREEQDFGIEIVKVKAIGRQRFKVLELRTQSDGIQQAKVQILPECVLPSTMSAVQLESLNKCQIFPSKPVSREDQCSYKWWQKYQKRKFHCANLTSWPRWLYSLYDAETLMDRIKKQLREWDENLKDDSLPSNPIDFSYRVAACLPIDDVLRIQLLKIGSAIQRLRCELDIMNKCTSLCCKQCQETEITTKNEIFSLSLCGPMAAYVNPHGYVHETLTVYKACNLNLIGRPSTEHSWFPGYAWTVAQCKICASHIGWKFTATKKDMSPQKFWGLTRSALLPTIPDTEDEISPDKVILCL
Chain of CRBN/DDB1 (Q16531 whole entry partner, species assumed): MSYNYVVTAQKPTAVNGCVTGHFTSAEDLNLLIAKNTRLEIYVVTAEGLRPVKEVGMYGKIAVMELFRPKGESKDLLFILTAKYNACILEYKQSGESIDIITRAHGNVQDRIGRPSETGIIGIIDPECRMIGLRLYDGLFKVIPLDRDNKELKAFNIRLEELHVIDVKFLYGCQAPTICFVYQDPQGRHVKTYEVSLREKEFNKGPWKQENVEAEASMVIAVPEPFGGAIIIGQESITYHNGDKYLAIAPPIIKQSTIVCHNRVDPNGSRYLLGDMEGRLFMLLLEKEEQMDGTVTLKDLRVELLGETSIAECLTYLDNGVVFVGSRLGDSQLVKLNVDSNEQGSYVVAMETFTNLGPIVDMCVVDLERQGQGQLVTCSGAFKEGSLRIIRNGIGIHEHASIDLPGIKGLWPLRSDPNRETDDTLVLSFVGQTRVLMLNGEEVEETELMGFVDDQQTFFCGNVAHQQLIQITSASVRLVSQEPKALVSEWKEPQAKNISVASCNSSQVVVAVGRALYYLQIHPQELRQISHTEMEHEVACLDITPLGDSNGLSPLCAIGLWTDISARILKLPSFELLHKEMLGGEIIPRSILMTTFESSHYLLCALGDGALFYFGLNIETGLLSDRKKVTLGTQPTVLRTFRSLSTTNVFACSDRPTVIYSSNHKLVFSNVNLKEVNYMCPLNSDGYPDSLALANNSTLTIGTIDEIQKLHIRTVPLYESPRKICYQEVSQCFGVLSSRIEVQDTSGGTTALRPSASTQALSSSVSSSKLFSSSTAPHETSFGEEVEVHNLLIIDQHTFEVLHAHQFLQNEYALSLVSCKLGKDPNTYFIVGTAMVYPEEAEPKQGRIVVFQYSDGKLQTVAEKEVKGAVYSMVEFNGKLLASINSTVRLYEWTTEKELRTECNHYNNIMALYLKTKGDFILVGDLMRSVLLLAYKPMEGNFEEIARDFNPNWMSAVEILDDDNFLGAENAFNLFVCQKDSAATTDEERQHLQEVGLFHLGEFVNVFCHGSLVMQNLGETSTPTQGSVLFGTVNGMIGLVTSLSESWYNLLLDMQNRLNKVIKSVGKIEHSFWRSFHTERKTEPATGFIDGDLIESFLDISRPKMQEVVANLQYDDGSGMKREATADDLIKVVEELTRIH

The IC50 is the concentration that inhibits the measured activity by half. For the compound `O=C1CC[C@H](N2Cc3cc4c(cc3C2=O)OC[C@@H]2CN(CC3CCC5(CC3)CN(c3ccc([C@@H]6c7ccc(O)cc7CC[C@@H]6c6ccccc6)cc3)C5)CCN42)C(=O)N1` (single isomer, unassigned) [Compound A63], the IC50 at CRBN/DDB1 lay in the range of 500 to 5000 nM.
For orientation: Dmax means the greatest extent of degradation seen. Take `O=C1CC[C@H](N2Cc3cc4c(cc3C2=O)OC[C@@H]2CN(CC3CC5(CCN(c6ccc([C@@H]7c8ccc(O)cc8CC[C@@H]7c7ccccc7)cn6)CC5)C3)CCN42)C(=O)N1` (single isomer, unassigned) [Compound A121]: on ER in MCF-7 cells, the Dmax was above 75% and the DC50 fell in the range of 1 to 10 nM. For the same compound, the IC50 on CRBN/DDB1 lay in the range of 500 to 5000 nM.
Taken in the same sequence, the figures for `COc1cc(N2CCC3(CC2)CC(CN2CCN4c5ccc6c(c5OC[C@H]4C2)CN([C@H]2CCC(=O)N(C)C2=O)C6=O)C3)ccc1[C@@H]1c2ccc(O)cc2CC[C@@H]1c1ccccc1` (single isomer, unassigned) [Compound A132] were 50 to 75%, 1 to 10 nM and 500 to 5000 nM.
Taken in the same sequence, the figures for `O=C1CC[C@H](N2Cc3cc4c(cc3C2=O)OC[C@@H]2CN(CC3CC5(CCN(c6ccc([C@@H]7c8ccc(O)cc8CC[C@@H]7c7ccccc7)cc6F)CC5)C3)CCN42)C(=O)N1` (single isomer, unassigned) [Compound A150] were 50 to 75%, 10 to 100 nM and 500 to 5000 nM.
For `O=C1CC[C@H](N2Cc3cc4c(cc3C2=O)OC[C@@H]2CN(CC3CCC5(CC3)CN(c3ccc([C@H]6c7ccc(O)cc7CC[C@H]6c6ccccc6)cc3F)C5)CCN42)C(=O)N1` (single isomer, unassigned) [Compound A151] the same measures were 25 to 50%, 10 to 100 nM and 500 to 5000 nM.
Turning to `O=C1CC[C@H](N2Cc3c(ccc4c3OC[C@H]3CN(CC5CCC6(CC5)CN(c5ccc([C@@H]7c8ccc(O)cc8CC[C@@H]7c7ccccc7)cc5F)C6)CCN43)C2=O)C(=O)N1` (single isomer, unassigned) [Compound A152], at ER in MCF-7 cells, the Dmax is 50 to 75% and the DC50 is 1 to 10 nM. In addition, the IC50 at CRBN/DDB1 was in the range of 500 to 5000 nM.
Consider `O=C1CC[C@H](N2Cc3c(ccc4c3OCC43CCN(CC4CCC5(CCN(c6ccc([C@@H]7c8ccc(O)cc8CC[C@@H]7c7ccccc7)cc6)CC5)OC4)CC3)C2=O)C(=O)N1` (stereo partly drawn) [Compound B366, (3S)-3-(1′-((9-(4-((1R,2S)-6-hydroxy-2-phenyl-1,2,3,4-tetrahydronaphthalen-1-yl)phenyl)-1-oxa-9-azaspiro[5.5]undecan-3-yl)methyl)-6-oxo-6,8-dihydro-2H,7H-spiro[furo[2,3-e]isoindole-3,4′-piperidin]-7-yl)piperidine-2,6-dione], for which, in assay [1], the IC50 is below 1 nM. Also, the DC50 at ER is below 10 nM.
On to `O=C1CCC(N2Cc3cc4c(cc3C2=O)OC[C@@H]2CN(CC(=O)N3CCC5(CC3)CCN(c3ccc([C@@H]6c7ccc8[nH]ncc8c7CC[C@@H]6c6ccccc6)cc3)CC5)CCN42)C(=O)N1` (stereo partly drawn) [Compound B389, 3-((S)-8-oxo-3-(2-oxo-2-(9-(4-((6R,7S)-7-phenyl-6,7,8,9-tetrahydro-3H-benzo[e]indazol-6-yl)phenyl)-3,9-diazaspiro[5.5]undecan-3-yl)ethyl)-1,2,3,4,4a,5,8,10-octahydro-9H-pyrazino[1′,2′:4,5][1,4]oxazino[2,3-f]isoindol-9-yl)piperidine-2,6-dione], for which the IC50 in assay [1] (T47D cell line) is above 10 nM. Also, at ER, the DC50 was above 100 nM.
Turning to `O=C1CCC(N2Cc3cc4c(cc3C2=O)OC[C@@H]2CN(CC(=O)N3CCC5(CC3)CCN(c3ccc([C@H]6c7ccc8[nH]ncc8c7CC[C@H]6c6ccccc6)cc3)CC5)CCN42)C(=O)N1` (stereo partly drawn) [Compound B390, 3-((S)-8-oxo-3-(2-oxo-2-(9-(4-((6S,7R)-7-phenyl-6,7,8,9-tetrahydro-3H-benzo[e]indazol-6-yl)phenyl)-3,9-diazaspiro[5.5]undecan-3-yl)ethyl)-1,2,3,4,4a,5,8,10-octahydro-9H-pyrazino[1′,2′:4,5][1,4]oxazino[2,3-f]isoindol-9-yl)piperidine-2,6-dione], in assay [1] (T47D cell line), the IC50 was above 10 nM. Further, the DC50 on ER lay within 10 to 100 nM.
Taken in the same sequence, the figures for `O=C1CC[C@H](N2Cc3cc4c(cc3C2=O)OC[C@H](CN2CCC3(CC2)CCN(c2ccc([C@@H]5c6ccc(O)cc6CC[C@@H]5c5ccccc5)cc2)CC3)O4)C(=O)N1` [Compound B391, 3-((S)-2-((9-(4-((1R,2S)-6-hydroxy-2-phenyl-1,2,3,4-tetrahydronaphthalen-1-yl)phenyl)-3,9-diazaspiro[5.5]undecan-3-yl)methyl)-6-oxo-2,3,6,8-tetrahydro-7H-[1,4]dioxino[2,3-f]isoindol-7-yl)piperidine-2,6-dione] were 1 to 10 nM and above 100 nM.
With `O=C1CC[C@H](N2Cc3cc4c(cc3C2=O)OC[C@@H]2CN(C[C@H]3COC5(CCN(c6ccc([C@@H]7c8ccc(O)cc8CC[C@@H]7c7ccccc7)cc6)CC5)C3)CCN42)C(=O)N1` [Compound B398, (S)-3-((S)-3-(((S)-8-(4-((1R,2S)-6-hydroxy-2-phenyl-1,2,3,4-tetrahydronaphthalen-1-yl)phenyl)-1-oxa-8-azaspiro[4.5]decan-3-yl)methyl)-8-oxo-1,2,3,4,4a,5,8,10-octahydro-9H-pyrazino[1′,2′:4,5][1,4]oxazino[2,3-f]isoindol-9-yl)piperidine-2,6-dione], the IC50 in assay [1] (T47D cell line) was below 1 nM. Further, the DC50 on ER is below 10 nM.
Taken in the same sequence, the figures for `O=C1CC[C@H](N2Cc3cc4c(cc3C2=O)OC[C@@H]2CN(C[C@@H]3COC5(CCN(c6ccc([C@@H]7c8ccc(O)cc8CC[C@@H]7c7ccccc7)cc6)CC5)C3)CCN42)C(=O)N1` [Compound B399, (S)-3-((S)-3-(((R)-8-(4-((1R,2S)-6-hydroxy-2-phenyl-1,2,3,4-tetrahydronaphthalen-1-yl)phenyl)-1-oxa-8-azaspiro[4.5]decan-3-yl)methyl)-8-oxo-1,2,3,4,4a,5,8,10-octahydro-9H-pyrazino[1′,2′:4,5][1,4]oxazino[2,3-f]isoindol-9-yl)piperidine-2,6-dione] were below 1 nM and below 10 nM.
For the compound `O=C1CC[C@H](N2Cc3c(ccc4c3OCC43CCN(C[C@@H]4CCC5(CCN(c6ccc([C@@H]7c8ccc(O)cc8CC[C@@H]7c7ccccc7)cc6)CC5)OC4)CC3)C2=O)C(=O)N1` [Compound B400, (S)-3-(1′-(((S)-9-(4-((1R,2S)-6-hydroxy-2-phenyl-1,2,3,4-tetrahydronaphthalen-1-yl)phenyl)-1-oxa-9-azaspiro[5.5]undecan-3-yl)methyl)-6-oxo-6,8-dihydro-2H,7H-spiro[furo[2,3-e]isoindole-3,4′-piperidin]-7-yl)piperidine-2,6-dione], the IC50 in assay [1] is below 1 nM. Further, the DC50 on ER is below 10 nM.
In the case of `O=C1CC[C@H](N2Cc3c(ccc4c3OCC43CCN(C[C@H]4CCC5(CCN(c6ccc([C@@H]7c8ccc(O)cc8CC[C@@H]7c7ccccc7)cc6)CC5)OC4)CC3)C2=O)C(=O)N1` [Compound B401, (S)-3-(1′-(((R)-9-(4-((1R,2S)-6-hydroxy-2-phenyl-1,2,3,4-tetrahydronaphthalen-1-yl)phenyl)-1-oxa-9-azaspiro[5.5]undecan-3-yl)methyl)-6-oxo-6,8-dihydro-2H,7H-spiro[furo[2,3-e]isoindole-3,4′-piperidin]-7-yl)piperidine-2,6-dione], in assay [1], the IC50 was below 1 nM. At ER, the DC50 is below 10 nM.
